Results as given in PMC9571063 (Molecules, 2022).
Values joined by “and” are separate entries in the source; they are usually repeats but may differ in a detail not shown here. Equal entries are not always repeated. Structures can show the parent of a compound that is named as a salt. Where two headings read alike, the source gives them in different places.

What was measured:
HsCLK2 = biological target: T1, HsCLK2 (Homo sapiens, UniProt P49760); experiment: kinase inhibition study by Eurofins; type: biochemical; settings: duplicate
T1 construct: purchased Eurofins (contract assay)
T1 sequence (P49760 whole entry): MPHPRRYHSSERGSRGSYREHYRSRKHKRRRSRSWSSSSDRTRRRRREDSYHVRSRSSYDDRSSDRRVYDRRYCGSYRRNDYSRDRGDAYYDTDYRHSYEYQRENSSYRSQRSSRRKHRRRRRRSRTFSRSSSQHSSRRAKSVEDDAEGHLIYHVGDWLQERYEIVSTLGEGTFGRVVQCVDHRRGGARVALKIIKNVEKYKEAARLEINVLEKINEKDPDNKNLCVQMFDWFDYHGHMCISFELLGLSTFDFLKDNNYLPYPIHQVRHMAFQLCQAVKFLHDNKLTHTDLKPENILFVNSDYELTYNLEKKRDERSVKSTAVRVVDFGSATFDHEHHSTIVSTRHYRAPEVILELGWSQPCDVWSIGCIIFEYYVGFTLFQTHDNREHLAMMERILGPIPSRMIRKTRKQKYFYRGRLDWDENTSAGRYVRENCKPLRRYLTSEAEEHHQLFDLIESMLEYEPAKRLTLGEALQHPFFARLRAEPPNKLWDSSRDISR
Procedure: (§1) Several inhibition studies for human kinases (HsCLK2, HsCLK3, HsCLK4), as well as the KINOMEscan^SM Assaywere performed by the Eurofins company, following protocols reported on their website.

HsCLK3 = biological target: T2, HsCLK3 (Homo sapiens, UniProt P49761); experiment: kinase inhibition study by Eurofins; type: biochemical; settings: duplicate
T2 construct: purchased Eurofins (contract assay)
T2 sequence (P49761 whole entry): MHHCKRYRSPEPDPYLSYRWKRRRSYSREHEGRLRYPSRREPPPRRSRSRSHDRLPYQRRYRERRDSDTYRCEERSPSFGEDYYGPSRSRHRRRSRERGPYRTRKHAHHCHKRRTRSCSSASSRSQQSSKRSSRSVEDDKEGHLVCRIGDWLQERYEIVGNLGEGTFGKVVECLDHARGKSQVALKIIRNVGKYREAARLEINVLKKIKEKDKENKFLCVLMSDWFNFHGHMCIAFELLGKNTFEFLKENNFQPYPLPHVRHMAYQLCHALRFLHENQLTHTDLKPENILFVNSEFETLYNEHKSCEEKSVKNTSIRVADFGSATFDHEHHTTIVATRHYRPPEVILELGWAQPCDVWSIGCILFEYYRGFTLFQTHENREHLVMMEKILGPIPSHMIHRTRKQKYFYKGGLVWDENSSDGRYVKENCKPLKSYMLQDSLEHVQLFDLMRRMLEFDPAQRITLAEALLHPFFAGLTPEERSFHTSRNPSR
Procedure: as §1

HsCLK4 = biological target: T3, HsCLK4 (Homo sapiens, UniProt Q9HAZ1); experiment: kinase inhibition study by Eurofins; type: biochemical
T3 construct: purchased Eurofins (contract assay)
T3 sequence (Q9HAZ1 whole entry): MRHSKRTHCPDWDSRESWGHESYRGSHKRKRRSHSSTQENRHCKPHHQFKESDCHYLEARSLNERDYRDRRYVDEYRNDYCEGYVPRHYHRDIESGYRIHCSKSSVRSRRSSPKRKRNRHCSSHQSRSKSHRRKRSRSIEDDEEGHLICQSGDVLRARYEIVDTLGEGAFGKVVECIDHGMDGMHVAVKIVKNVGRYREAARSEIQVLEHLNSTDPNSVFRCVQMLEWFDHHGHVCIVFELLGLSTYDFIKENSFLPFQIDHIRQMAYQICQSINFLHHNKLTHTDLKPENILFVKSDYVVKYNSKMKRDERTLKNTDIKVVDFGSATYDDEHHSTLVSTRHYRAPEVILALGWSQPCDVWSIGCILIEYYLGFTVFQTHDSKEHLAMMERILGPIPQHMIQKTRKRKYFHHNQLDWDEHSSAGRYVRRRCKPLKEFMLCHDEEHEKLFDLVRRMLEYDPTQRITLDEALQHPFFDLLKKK
Procedure: as §1

Hs_CDK5/p25 = biological target: T4, Hs_CDK5/p25 (Homo sapiens, UniProt Q00535); experiment: ADP-Glo kinase assay, primary screen; type: biochemical; settings: n=2, read-out: % of residual activity Hs_CDK5/p25
T4 construct: host or cells: bacteria
T4 sequence (Q00535 whole entry): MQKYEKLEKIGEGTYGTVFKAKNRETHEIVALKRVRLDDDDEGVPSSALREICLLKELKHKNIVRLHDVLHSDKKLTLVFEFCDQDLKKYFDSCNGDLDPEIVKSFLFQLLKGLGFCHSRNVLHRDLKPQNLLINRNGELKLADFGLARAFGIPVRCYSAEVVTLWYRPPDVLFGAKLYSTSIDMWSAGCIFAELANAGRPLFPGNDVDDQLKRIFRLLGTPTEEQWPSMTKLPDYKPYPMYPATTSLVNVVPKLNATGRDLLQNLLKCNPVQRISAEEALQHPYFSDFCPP
T4 sequence (Q15078 99-307 partner limits assumed): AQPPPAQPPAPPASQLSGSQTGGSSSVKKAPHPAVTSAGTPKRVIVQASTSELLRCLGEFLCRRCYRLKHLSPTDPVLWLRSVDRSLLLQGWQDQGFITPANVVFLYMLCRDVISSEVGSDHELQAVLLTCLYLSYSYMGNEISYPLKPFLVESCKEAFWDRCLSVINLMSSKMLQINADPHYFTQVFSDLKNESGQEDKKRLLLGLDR

Hs_PIM1 = biological target: T5, Hs_PIM1 (Homo sapiens, UniProt P11309); experiment: ADP-Glo kinase assay, primary screen; type: biochemical; settings: n=2, read-out: % of residual activity Hs_PIM1
T5 construct: host or cells: Sf9 insect cells (baculovirus)
T5 sequence (P11309 whole entry): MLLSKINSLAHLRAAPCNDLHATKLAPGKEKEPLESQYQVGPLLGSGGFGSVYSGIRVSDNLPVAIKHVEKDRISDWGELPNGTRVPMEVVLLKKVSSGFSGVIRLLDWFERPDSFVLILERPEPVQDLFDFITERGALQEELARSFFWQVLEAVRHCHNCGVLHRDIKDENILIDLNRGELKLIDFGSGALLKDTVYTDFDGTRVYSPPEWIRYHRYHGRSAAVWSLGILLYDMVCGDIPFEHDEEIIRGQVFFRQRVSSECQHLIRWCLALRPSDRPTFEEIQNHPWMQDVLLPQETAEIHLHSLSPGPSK

Hs_GSK3β = biological target: T6, Hs_GSK3β (Homo sapiens, UniProt P49841); experiment: ADP-Glo kinase assay, primary screen; type: biochemical; settings: n=2, read-out: % of residual activity Hs_GSK3β
T6 construct: host or cells: Sf9 insect cells (baculovirus)
T6 sequence (P49841 whole entry): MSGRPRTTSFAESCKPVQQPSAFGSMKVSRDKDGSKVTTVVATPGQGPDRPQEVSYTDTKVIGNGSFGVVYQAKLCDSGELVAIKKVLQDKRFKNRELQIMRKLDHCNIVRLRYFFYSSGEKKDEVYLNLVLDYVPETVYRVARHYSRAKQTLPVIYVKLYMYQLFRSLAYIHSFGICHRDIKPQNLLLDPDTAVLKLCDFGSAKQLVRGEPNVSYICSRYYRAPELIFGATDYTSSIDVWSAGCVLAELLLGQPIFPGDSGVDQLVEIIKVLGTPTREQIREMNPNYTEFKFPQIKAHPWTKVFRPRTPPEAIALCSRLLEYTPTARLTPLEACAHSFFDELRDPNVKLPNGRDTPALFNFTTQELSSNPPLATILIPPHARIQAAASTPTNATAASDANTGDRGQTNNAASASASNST

[1] = cytotoxic assay, nuclei count (Hoechst, HCS); type: cell-based; settings: human, MCF7 cells (breast carcinoma); 48 h treatment; read-out: Cytotoxic studies IC50 MCF7
Human skin fibroblasts = experiment: cytotoxic assay, nuclei count (Hoechst, HCS); type: cell-based; settings: summary of Table S2
[2] = biological target: T7, ABL1(H396P)-phosphorylated (Homo sapiens, UniProt P00519, H396P); experiment: KINOMEscan; type: binding; settings: read-out: Percent Control
T7 construct: purchased Eurofins DiscoverX KINOMEscan (scanMAX 468)

BLK = biological target: T8, BLK (Homo sapiens, UniProt P51451); experiment: KINOMEscan; type: binding; settings: read-out: Percent Control
T8 construct: purchased Eurofins DiscoverX KINOMEscan (scanMAX 468)

BMPR2 = biological target: T9, BMPR2 (Homo sapiens, UniProt Q13873); experiment: KINOMEscan; type: binding; settings: read-out: Percent Control
T9 construct: purchased Eurofins DiscoverX KINOMEscan (scanMAX 468)

CASK = biological target: T10, CASK (Homo sapiens, UniProt O14936); experiment: KINOMEscan; type: binding; settings: read-out: Percent Control
T10 construct: purchased Eurofins DiscoverX KINOMEscan (scanMAX 468)

DMPK2 = biological target: T11, DMPK2 (Homo sapiens, UniProt Q6DT37); experiment: KINOMEscan; type: binding; settings: read-out: Percent Control
T11 construct: purchased Eurofins DiscoverX KINOMEscan (scanMAX 468)

DRAK2 = biological target: T12, DRAK2 (Homo sapiens, UniProt O94768); experiment: KINOMEscan; type: binding; settings: read-out: Percent Control
T12 construct: purchased Eurofins DiscoverX KINOMEscan (scanMAX 468)
T12 sequence (O94768 whole entry): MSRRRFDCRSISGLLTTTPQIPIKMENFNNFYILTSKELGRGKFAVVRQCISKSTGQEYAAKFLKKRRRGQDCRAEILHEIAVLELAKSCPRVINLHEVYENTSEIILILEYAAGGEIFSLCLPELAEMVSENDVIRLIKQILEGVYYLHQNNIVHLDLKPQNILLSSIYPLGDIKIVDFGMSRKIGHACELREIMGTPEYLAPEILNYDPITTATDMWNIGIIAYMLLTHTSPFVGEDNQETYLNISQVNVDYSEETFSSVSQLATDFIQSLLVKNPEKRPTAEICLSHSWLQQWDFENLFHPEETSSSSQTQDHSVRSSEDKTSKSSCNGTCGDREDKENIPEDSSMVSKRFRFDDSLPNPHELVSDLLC

[3] = biological target: T13, EGFR(L747-E749del, A750P) (Homo sapiens, UniProt P00533, A750P/DEL747-749); experiment: KINOMEscan; type: binding; settings: read-out: Percent Control
T13 construct: purchased Eurofins DiscoverX KINOMEscan (scanMAX 468)

FLT3-autoinhibited = biological target: T14, FLT3-autoinhibited (Homo sapiens, UniProt P36888); experiment: KINOMEscan; type: binding; settings: read-out: Percent Control
T14 construct: purchased Eurofins DiscoverX KINOMEscan (scanMAX 468)
T14 sequence (P36888 564-993 limits assumed): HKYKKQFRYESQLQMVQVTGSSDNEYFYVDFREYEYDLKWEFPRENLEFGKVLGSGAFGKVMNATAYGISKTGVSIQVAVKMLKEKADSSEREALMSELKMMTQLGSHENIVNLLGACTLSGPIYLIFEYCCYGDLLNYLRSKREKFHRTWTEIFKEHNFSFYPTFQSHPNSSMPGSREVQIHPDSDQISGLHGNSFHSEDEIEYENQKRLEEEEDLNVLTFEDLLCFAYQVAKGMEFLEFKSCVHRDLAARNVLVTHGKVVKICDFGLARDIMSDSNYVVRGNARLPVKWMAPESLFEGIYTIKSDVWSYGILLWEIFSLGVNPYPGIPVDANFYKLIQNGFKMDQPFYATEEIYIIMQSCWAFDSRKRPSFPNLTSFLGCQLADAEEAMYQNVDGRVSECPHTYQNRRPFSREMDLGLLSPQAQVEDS

MARK1 = biological target: T15, MARK1 (Homo sapiens, UniProt Q9P0L2); experiment: KINOMEscan; type: binding; settings: read-out: Percent Control
T15 construct: purchased Eurofins DiscoverX KINOMEscan (scanMAX 468)
T15 sequence (Q9P0L2 whole entry): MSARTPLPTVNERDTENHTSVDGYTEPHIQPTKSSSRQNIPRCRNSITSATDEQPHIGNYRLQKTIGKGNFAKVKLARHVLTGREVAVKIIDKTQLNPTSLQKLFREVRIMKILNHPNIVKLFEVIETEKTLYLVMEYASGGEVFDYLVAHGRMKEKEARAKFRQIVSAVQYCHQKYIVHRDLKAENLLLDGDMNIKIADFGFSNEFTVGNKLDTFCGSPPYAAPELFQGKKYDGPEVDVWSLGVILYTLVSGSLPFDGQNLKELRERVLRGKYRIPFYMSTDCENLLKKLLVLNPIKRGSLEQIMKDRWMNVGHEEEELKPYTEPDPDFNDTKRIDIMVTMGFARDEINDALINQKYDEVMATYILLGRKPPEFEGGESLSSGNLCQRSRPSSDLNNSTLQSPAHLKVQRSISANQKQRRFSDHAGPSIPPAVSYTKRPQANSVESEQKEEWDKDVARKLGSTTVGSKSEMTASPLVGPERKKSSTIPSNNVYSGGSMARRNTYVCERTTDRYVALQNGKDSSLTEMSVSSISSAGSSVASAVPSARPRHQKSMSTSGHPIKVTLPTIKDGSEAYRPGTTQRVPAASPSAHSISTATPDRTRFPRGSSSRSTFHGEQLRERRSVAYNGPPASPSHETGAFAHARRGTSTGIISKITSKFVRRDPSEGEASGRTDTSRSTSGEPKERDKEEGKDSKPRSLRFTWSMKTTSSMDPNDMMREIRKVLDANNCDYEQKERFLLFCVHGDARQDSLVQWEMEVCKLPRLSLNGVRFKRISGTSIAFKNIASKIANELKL

MYO3B = biological target: T16, MYO3B (Homo sapiens, UniProt Q8WXR4); experiment: KINOMEscan; type: binding; settings: read-out: Percent Control
T16 construct: purchased Eurofins DiscoverX KINOMEscan (scanMAX 468)

PCTK2 = biological target: T17, PCTK2 (Homo sapiens, UniProt Q00537); experiment: KINOMEscan; type: binding; settings: read-out: Percent Control
T17 construct: purchased Eurofins DiscoverX KINOMEscan (scanMAX 468)

PRKD2 = biological target: T18, PRKD2 (Homo sapiens, UniProt Q9BZL6); experiment: KINOMEscan; type: binding; settings: read-out: Percent Control
T18 construct: purchased Eurofins DiscoverX KINOMEscan (scanMAX 468)

[4] = biological target: T19, RPS6KA5(Kin.Dom.2-C-terminal) (Homo sapiens, UniProt O75582); experiment: KINOMEscan; type: binding; settings: read-out: Percent Control
T19 construct: RPS6KA5(Kin.Dom.2-C-terminal); purchased Eurofins DiscoverX KINOMEscan (scanMAX 468)

[5] = biological target: T20, RSK3(Kin.Dom.1-N-terminal) (Homo sapiens, UniProt Q15349); experiment: KINOMEscan; type: binding; settings: read-out: Percent Control
T20 construct: RSK3(Kin.Dom.1-N-terminal); purchased Eurofins DiscoverX KINOMEscan (scanMAX 468)

[6] = biological target: T21, RSK4(Kin.Dom.1-N-terminal) (Homo sapiens, UniProt Q9UK32); experiment: KINOMEscan; type: binding; settings: read-out: Percent Control
T21 construct: RSK4(Kin.Dom.1-N-terminal); purchased Eurofins DiscoverX KINOMEscan (scanMAX 468)

SGK2 = biological target: T22, SGK2 (Homo sapiens, UniProt Q9HBY8); experiment: KINOMEscan; type: binding; settings: read-out: Percent Control
T22 construct: purchased Eurofins DiscoverX KINOMEscan (scanMAX 468)
T22 sequence (Q9HBY8 whole entry): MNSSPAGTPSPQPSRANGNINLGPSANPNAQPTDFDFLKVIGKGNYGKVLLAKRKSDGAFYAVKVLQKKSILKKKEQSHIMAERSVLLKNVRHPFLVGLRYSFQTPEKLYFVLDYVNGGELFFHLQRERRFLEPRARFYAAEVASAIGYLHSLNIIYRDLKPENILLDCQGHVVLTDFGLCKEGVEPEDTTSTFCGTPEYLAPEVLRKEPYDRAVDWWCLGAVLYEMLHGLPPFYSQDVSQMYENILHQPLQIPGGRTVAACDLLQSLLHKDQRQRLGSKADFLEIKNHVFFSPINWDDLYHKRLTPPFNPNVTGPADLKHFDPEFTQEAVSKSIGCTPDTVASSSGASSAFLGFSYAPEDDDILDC

TNNI3K = biological target: T23, TNNI3K (Homo sapiens, UniProt Q59H18); experiment: KINOMEscan; type: binding; settings: read-out: Percent Control
T23 construct: purchased Eurofins DiscoverX KINOMEscan (scanMAX 468)

ULK2 = biological target: T24, ULK2 (Homo sapiens, UniProt Q8IYT8); experiment: KINOMEscan; type: binding; settings: read-out: Percent Control
T24 construct: purchased Eurofins DiscoverX KINOMEscan (scanMAX 468)

Row | Compound | IC50 (HsCLK2) | IC50 (HsCLK3) | IC50 (HsCLK4; duplicate) | remaining activity at 1 µM (Hs_CDK5/p25) | remaining activity at 10 µM (Hs_CDK5/p25) | remaining activity at 1 µM (Hs_PIM1) | remaining activity at 10 µM (Hs_PIM1) | remaining activity at 1 µM (Hs_GSK3β) | remaining activity at 10 µM (Hs_GSK3β) | IC50 at 48 h [1] | toxicity towards fibroblasts (Human skin fibroblasts) | also measured
1 | Cc1ccc(-n2cc(COc3cccc4cnc(Nc5cc(Cl)cc(Cl)c5)nc34)nn2)c([N+](=O)[O-])c1 [7b, N-(3,5-dichlorophenyl)-8-((1-(4-methyl-2-nitrophenyl)-1H-1,2,3-triazol-4-yl)methoxy)quinazolin-2-amine] | 97 nM | 3310 nM | 380 nM | 93% | 68% | 87% | 84% | 85% | 36% | 24000 nM | non-toxic | 
2 | O=[N+]([O-])c1cc(Br)ccc1-n1cc(COc2cccc3cnc(Nc4cccc(Cl)c4)nc23)nn1 [12d, N-(3-Chlorophenyl)-8-((1-(4-bromo-2-nitrophenyl)-1H-1,2,3-triazol-4-yl)methoxy)quinazolin-2-amine] |  |  |  | ≥ 100% | ≥ 100% | 85% | 70% | ≥ 100% | 75% | > 25000 nM | moderate toxicity | 
3 | O=[N+]([O-])c1cc(CO)ccc1-n1cc(COc2cccc3cnc(Nc4cccc(Cl)c4)nc23)nn1 [12e, 4-(4-(((2-((3-Chlorophenyl)amino)quinazolin-8-yl)oxy)methyl)-1H-1,2,3-triazol-1-yl)-3-nitrobenzyl alcohol] | 50 nM | 7500 nM and 7490 nM | 195 nM | ≥ 100% | 54% | 96% | 69% | 99% | 35% | 4000 nM | moderate toxicity | IC50 (HsCLK4): 150 to 200 nM
4 | COC(=O)c1ccc(-n2cc(COc3cccc4cnc(Nc5cccc(Cl)c5)nc34)nn2)c([N+](=O)[O-])c1 [12f, Methyl 4-(4-(((2-((3-chlorophenyl)amino)quinazolin-8-yl)oxy)methyl)-1H-1,2,3-triazol-1-yl)-3-nitrobenzoate] |  |  |  | ≥ 100% | 61% | 73% | 66% | 99% | 69% | > 25000 nM | non-active | 
5 | O=C(O)c1ccc(-n2cc(COc3cccc4cnc(Nc5cccc(Cl)c5)nc34)nn2)c([N+](=O)[O-])c1 [12g, 4-(4-(((2-((3-Chlorophenyl)amino)quinazolin-8-yl)oxy)methyl)-1H-1,2,3-triazol-1-yl)-3-nitrobenzoic acid] | 28 nM | 339 nM | 55 nM | 45% | 97% | 66% | 31% | 76% | 19% | > 25000 nM | non-active | 
6 | N[C@H]1CC[C@@H](n2cc(COc3cccc4cnc(Nc5cc(Cl)cc(Cl)c5)nc34)nn2)CC1 [16b, 8-((1-((cis)-4-Aminocyclohexyl)-1H-1,2,3-triazol-4-yl)methoxy)-N-(3,5-dichlorophenyl)quinazolin-2-amine hydrochloride] | 20 nM | 3260 nM | 83 nM | 87% | 44% | 69% | 15% | 47% | 8% | 3000 nM |  | 
7 | Cc1ccc(-n2cc(COc3cccc4cnc(Nc5cccc(Cl)c5)nc34)nn2)c([N+](=O)[O-])c1 [DB18] |  |  |  |  |  |  |  |  |  |  |  | remaining binding at 1 µM [2]: 98%; remaining binding at 1 µM (BLK): 100%; remaining binding at 1 µM (BMPR2): 100%; remaining binding at 1 µM (CASK): 99%; remaining binding at 1 µM (DMPK2): 100%; remaining binding at 1 µM (DRAK2): 100%; remaining binding at 1 µM [3]: 93%; remaining binding at 1 µM (FLT3-autoinhibited): 100%; remaining binding at 1 µM (MARK1): 99%; remaining binding at 1 µM (MYO3B): 84%; remaining binding at 1 µM (PCTK2): 98%; remaining binding at 1 µM (PRKD2): 100%; remaining binding at 1 µM [4]: 100%; remaining binding at 1 µM [5]: 100%; remaining binding at 1 µM [6]: 96%; remaining binding at 1 µM (SGK2): 100%; remaining binding at 1 µM (TNNI3K): 92%; remaining binding at 1 µM (ULK2): 100%
